From PMC11995724, “Antibiotic target discovery by integrated phenotypic and activity-based profiling of electrophilic fragments” (Cell chemical biology, 2025)

Experiment: in vitro
Settings: human, hek293t cells

| SMILES | viability at 48 h, 25 µM [%] |
| --- | --- |
| O=C(CCl)Nc1nc(-c2ccccc2)cs1 [4-L04, 2-chloro-N-(4-phenyl-1,3-thiazol-2-yl)acetamide] | -0.0639 |
| COc1ccc(NC(=O)c2ccccc2NC(=O)CCl)cc1 [4-L05, 2-(2-chloroacetamido)-N-(4-methoxyphenyl)benzamide] | 0.046 |
| Cc1ccc(S(=O)(=O)N2CCCCC2)cc1NC(=O)CCl [4-L06, 2-chloro-N-[2-methyl-5-(piperidine-1-sulfonyl)phenyl]acetamide] | 0.53 |
| Cc1ccc(NC(=O)CCl)cc1S(=O)(=O)N1CCOCC1 [4-L07, 2-chloro-N-[4-methyl-3-(morpholine-4-sulfonyl)phenyl]acetamide] | 0.278 |
| O=C(CCl)Nc1c(F)c(F)c(F)c(F)c1F [4-L08, 2-chloro-N-(2,3,4,5,6-pentafluorophenyl)acetamide] | 1.92 |
| CC(Cl)C(=O)Nc1ccc(SC(F)F)cc1 (stereo not shown) [4-L09, 2-chloro-N-{4-[(difluoromethyl)sulfanyl]phenyl}propanamide] | 71.9 |
| CCOc1ccc2nc(NC(=O)CCl)sc2c1 [4-L10, 2-chloro-N-(6-ethoxy-1,3-benzothiazol-2-yl)acetamide] | 0.621 |
| O=C(CCl)NC(Cc1ccccc1)c1ccccc1 (stereo not shown) [4-L11, 2-chloro-N-(1,2-diphenylethyl)acetamide] | 0.317 |
| O=C(CCl)N(Cc1cccs1)C1CCS(=O)(=O)C1 (stereo not shown) [4-L12, 2-chloro-N-(1,1-dioxo-1lambda6-thiolan-3-yl)-N-[(thiophen-2-yl)methyl]acetamide] | 1.65 |
| CC(Cl)C(=O)Nc1cccc(Cl)c1Cl (stereo not shown) [4-L13, 2-chloro-N-(2,3-dichlorophenyl)propanamide] | 81.1 |
| O=C(CCl)N(Cc1ccco1)c1ccccc1 [4-L14, 2-chloro-N-[(furan-2-yl)methyl]-N-phenylacetamide] | 1.2 |
| CCc1ccc(NC(=O)C(C)Cl)cc1 (stereo not shown) [4-L15, 2-chloro-N-(4-ethylphenyl)propanamide] | 76.6 |
| O=C(CCl)NCC(=O)Nc1ccc(F)c(F)c1 [4-L16, 2-chloro-N-{[(3,4-difluorophenyl)carbamoyl]methyl}acetamide] | 1.48 |
| CC(Cl)C(=O)Nc1ccc(Cl)cc1Cl (stereo not shown) [4-L17, 2-chloro-N-(2,4-dichlorophenyl)propanamide] | 81.6 |
| O=C(CCl)N(c1ccccc1)C1CCCCC1 [4-L18, 2-chloro-N-cyclohexyl-N-phenylacetamide] | 0.523 |
| Cc1cc(C(C)(C)C)cc(C)c1NC(=O)CCl [4-L19, N-(4-tert-butyl-2,6-dimethylphenyl)-2-chloroacetamide] | 1.04 |
| O=C(CCl)N1CCc2sccc2C1c1cccs1 (stereo not shown) [4-L20, 2-chloro-1-[4-(thiophen-2-yl)-4H,5H,6H,7H-thieno[3,2-c]pyridin-5-yl]ethan-1-one] | -0.242 |
| O=C(CCl)NCc1ccccc1OC(F)(F)F [4-L21, 2-chloro-N-{[2-(trifluoromethoxy)phenyl]methyl}acetamide] | 0.623 |
| O=C(CCl)Nc1nc(-c2cc(F)ccc2F)cs1 [4-L22, 2-chloro-N-[4-(2,5-difluorophenyl)-1,3-thiazol-2-yl]acetamide] | 0.065 |
| CCCc1cc(NC(=O)CCl)n(-c2ccccc2)n1 [4-M03, 2-chloro-N-(1-phenyl-3-propyl-1H-pyrazol-5-yl)acetamide] | 0.483 |

| SMILES | viability at 48 h, 25 µM [%] |
| --- | --- |
| CCc1cc(SC#N)cc(C)c1NC(=O)CCl [4-M04, 2-chloro-N-[4-(cyanosulfanyl)-2-ethyl-6-methylphenyl]acetamide] | 17.6 |
| O=C(CCl)Nc1ccc(F)c(F)c1F [4-M05, 2-chloro-N-(2,3,4-trifluorophenyl)acetamide] | 0.759 |
| CCN(CC)S(=O)(=O)c1cccc(NC(=O)CCl)c1 [4-M07, 2-chloro-N-[3-(diethylsulfamoyl)phenyl]acetamide] | 1.11 |
| COc1ccc(NC(C)=O)cc1NC(=O)C(C)Cl (stereo not shown) [4-M08, 2-chloro-N-(5-acetamido-2-methoxyphenyl)propanamide] | 84.8 |
| COc1cc(NC(=O)CCl)c(C)cc1[N+](=O)[O-] [4-M09, 2-chloro-N-(5-methoxy-2-methyl-4-nitrophenyl)acetamide] | 1.27 |
| CC(Cl)C(=O)Nc1cccc2ncccc12 (stereo not shown) [4-M10, 2-chloro-N-(quinolin-5-yl)propanamide] | 97.4 |
| CSc1ccccc1NC(=O)C(C)Cl (stereo not shown) [4-M12, 2-chloro-N-[2-(methylsulfanyl)phenyl]propanamide] | 95.2 |
| Cc1ccc(NC(=O)CCl)cc1[N+](=O)[O-] [4-M13, 2-chloro-N-(4-methyl-3-nitrophenyl)acetamide] | 59.2 |
| Cc1ccc(C)c(-c2cc(NC(=O)CCl)n(-c3ccccc3)n2)c1 [4-M14, 2-chloro-N-[3-(2,5-dimethylphenyl)-1-phenyl-1H-pyrazol-5-yl]acetamide] | 0.149 |
| Cc1ccc(N(CCC#N)C(=O)CCl)cc1 [4-M15, 2-chloro-N-(2-cyanoethyl)-N-(4-methylphenyl)acetamide] | 1.24 |
| O=C(CCl)Nc1ccccc1F [4-M16, 2-chloro-N-(2-fluorophenyl)acetamide] | 0.723 |
| COc1cc(NC(=O)CCl)c(Cl)cc1C(=O)O [4-M17, 5-chloro-4-(2-chloroacetamido)-2-methoxybenzoic acid] | 1.05 |
| O=C(CCl)N1c2ccccc2SCC1c1ccccc1 (stereo not shown) [4-M18, 2-chloro-1-(3-phenyl-3,4-dihydro-2H-1,4-benzothiazin-4-yl)ethan-1-one] | -0.0405 |
| COc1ccc(OC)c(C(C)NC(=O)CCl)c1 (stereo not shown) [4-M19, 2-chloro-N-[1-(2,5-dimethoxyphenyl)ethyl]acetamide] | 1.13 |
| COc1ccc(C2=NN(C(=O)CCl)C(c3ccc(F)cc3)C2)cc1 (stereo not shown) [4-M20, 2-chloro-1-[5-(4-fluorophenyl)-3-(4-methoxyphenyl)-4,5-dihydro-1H-pyrazol-1-yl]ethan-1-one] | 0.00411 |
| Cc1c(C#N)c(NC(=O)CCl)n(Cc2ccccc2)c1C [4-M21, N-(1-benzyl-3-cyano-4,5-dimethyl-1H-pyrrol-2-yl)-2-chloroacetamide] | -0.247 |
| O=C(CCl)N1N=C(C=Cc2ccco2)CC1c1ccco1 (stereo not shown) [4-M22, 2-chloro-1-[5-(furan-2-yl)-3-[2-(furan-2-yl)ethenyl]-4,5-dihydro-1H-pyrazol-1-yl]ethan-1-one] | -0.145 |
| N#Cc1ccc(NC(=O)CCl)cc1Cl [4-N03, 2-chloro-N-(3-chloro-4-cyanophenyl)acetamide] | 0.427 |
| O=C(CCl)NCCCc1ccccc1 [4-N04, 2-chloro-N-(3-phenylpropyl)acetamide] | 50.6 |
| CC(Cl)C(=O)N(C)CC(=O)Nc1ccccc1C(F)(F)F (stereo not shown) [4-N05, 2-chloro-N-methyl-N-({[2-(trifluoromethyl)phenyl]carbamoyl}methyl)propanamide] | 79.8 |

| SMILES | viability at 48 h, 25 µM [%] |
| --- | --- |
| COc1ccc(-c2csc(NC(=O)CCl)n2)cc1 [4-N06, 2-chloro-N-[4-(4-methoxyphenyl)-1,3-thiazol-2-yl]acetamide] | 0.915 |
| O=C(CCl)N1c2ccccc2Sc2ccc(Cl)cc21 [4-N07, 2-chloro-1-(2-chloro-10H-phenothiazin-10-yl)ethan-1-one] | 122 |
| O=C(CCl)Nc1ccc(C(F)(F)F)cc1[N+](=O)[O-] [4-N08, 2-chloro-N-[2-nitro-4-(trifluoromethyl)phenyl]acetamide] | 87.1 |
| O=C(CCl)Nc1ccccc1OC(F)F [4-N09, 2-chloro-N-[2-(difluoromethoxy)phenyl]acetamide] | 0.7 |
| O=C(CCl)Nc1ccc(-c2ccccc2)cc1 [4-N10, N-{[1,1'-biphenyl]-4-yl}-2-chloroacetamide] | 0.814 |
| O=C(CCl)NCCc1ccc2c(c1)OCCO2 [4-N11, 2-chloro-N-[2-(2,3-dihydro-1,4-benzodioxin-6-yl)ethyl]acetamide] | 18.9 |
| COc1cc(NC(=O)CCl)cc(OC)c1OC [4-N12, 2-chloro-N-(3,4,5-trimethoxyphenyl)acetamide] | 1.27 |
| CC(Cl)C(=O)Nc1cc(Cl)c(Cl)cc1Cl (stereo not shown) [4-N13, 2-chloro-N-(2,4,5-trichlorophenyl)propanamide] | 71.7 |
| CC(C)C(NC(=O)CCl)c1ccc2c(c1)OCCCO2 (stereo not shown) [4-N14, 2-chloro-N-[1-(3,4-dihydro-2H-1,5-benzodioxepin-7-yl)-2-methylpropyl]acetamide] | 28.5 |
| CC(Cl)C(=O)Nc1cc(C(F)(F)F)ccc1Cl (stereo not shown) [4-N15, 2-chloro-N-[2-chloro-5-(trifluoromethyl)phenyl]propanamide] | 83.3 |
| O=C(CCl)Nc1ccc(S(=O)(=O)C(F)F)cc1 [4-N16, 2-chloro-N-(4-difluoromethanesulfonylphenyl)acetamide] | 0.598 |
| Cc1ccc(C(=O)c2ccccc2NC(=O)CCl)cc1 [4-N17, 2-chloro-N-[2-(4-methylbenzoyl)phenyl]acetamide] | 2.4 |
| Cc1c(C#N)c(NC(=O)CCl)n(C2CCCCC2)c1C [4-N18, 2-chloro-N-(3-cyano-1-cyclohexyl-4,5-dimethyl-1H-pyrrol-2-yl)acetamide] | 0.0875 |
| COc1ccc(C2=NN(C(=O)CCl)C(c3ccco3)C2)cc1 (stereo not shown) [4-N19, 2-chloro-1-[5-(furan-2-yl)-3-(4-methoxyphenyl)-4,5-dihydro-1H-pyrazol-1-yl]ethan-1-one] | 0.0172 |
| CC(Cl)C(=O)N1CC(=O)Nc2cc(C(F)(F)F)ccc21 (stereo not shown) [4-N20, 4-(2-chloropropanoyl)-7-(trifluoromethyl)-1,2,3,4-tetrahydroquinoxalin-2-one] | 82.1 |
| O=C(CCl)NC1CCCN(c2cc(N3CCOCC3)ncn2)C1 (stereo not shown) [4-N21, 2-chloro-N-{1-[6-(morpholin-4-yl)pyrimidin-4-yl]piperidin-3-yl}acetamide] | 4.92 |
| O=C(CCl)Nc1ccccc1Cc1ccccc1 [4-N22, N-(2-benzylphenyl)-2-chloroacetamide] | 0.906 |
| Cc1ccc(F)cc1NC(=O)CCl [4-O03, 2-chloro-N-(5-fluoro-2-methylphenyl)acetamide] | 0.509 |
